In the Kinase Knowledgebase extract (Sharma et al. 2016):

Target: PIK3CD (Human) (UniProt O00329)
Experiment: Enzyme Assay

Chain of PIK3CD (Human) (O00329 whole entry, looked up): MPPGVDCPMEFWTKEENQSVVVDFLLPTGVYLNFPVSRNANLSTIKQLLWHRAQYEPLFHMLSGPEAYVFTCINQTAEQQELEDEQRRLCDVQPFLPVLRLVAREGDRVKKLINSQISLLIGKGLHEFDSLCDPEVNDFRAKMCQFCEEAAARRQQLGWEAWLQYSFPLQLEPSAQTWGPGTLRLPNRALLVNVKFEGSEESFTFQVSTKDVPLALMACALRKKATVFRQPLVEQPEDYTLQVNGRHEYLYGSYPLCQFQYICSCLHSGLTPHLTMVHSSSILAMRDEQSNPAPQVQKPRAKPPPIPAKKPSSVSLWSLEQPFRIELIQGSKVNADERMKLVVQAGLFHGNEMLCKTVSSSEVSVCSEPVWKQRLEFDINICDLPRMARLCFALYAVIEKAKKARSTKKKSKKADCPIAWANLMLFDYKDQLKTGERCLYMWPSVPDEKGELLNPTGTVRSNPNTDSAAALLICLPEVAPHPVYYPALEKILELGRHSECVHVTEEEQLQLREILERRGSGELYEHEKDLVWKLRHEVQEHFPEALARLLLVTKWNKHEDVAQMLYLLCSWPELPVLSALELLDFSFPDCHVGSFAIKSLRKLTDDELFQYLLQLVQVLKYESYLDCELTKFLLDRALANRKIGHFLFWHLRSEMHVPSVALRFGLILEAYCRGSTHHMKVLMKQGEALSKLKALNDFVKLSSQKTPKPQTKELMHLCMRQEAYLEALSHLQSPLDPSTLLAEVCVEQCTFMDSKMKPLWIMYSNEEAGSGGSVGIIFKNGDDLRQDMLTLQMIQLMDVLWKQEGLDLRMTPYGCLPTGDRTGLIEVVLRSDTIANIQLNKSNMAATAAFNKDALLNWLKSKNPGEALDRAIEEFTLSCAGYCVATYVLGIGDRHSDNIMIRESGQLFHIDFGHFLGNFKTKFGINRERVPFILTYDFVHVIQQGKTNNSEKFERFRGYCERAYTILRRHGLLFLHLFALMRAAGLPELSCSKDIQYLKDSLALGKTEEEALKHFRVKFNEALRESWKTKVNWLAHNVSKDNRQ

| SMILES | IC50 [µM] |
| --- | --- |
| CCn1ncc(-c2nc3c(O[C@H]4CCN(C(=O)c5cnn(C(C)C)c5)C4)ncnc3n2C)c1C | 0.03 |
| CCn1c(-c2cnc(N)c(C(F)(F)F)c2)nc2c(O[C@H]3CCN(C(=O)C4CC4)C3)ncnc21 | 0.0011 |
| CCn1c(-c2ccc(OC(F)F)nc2)nc2c(O[C@H]3CCN(C(=O)OC(C)(C)C)C3)ncnc21 | 0.015 |
| CCC(=O)N1CC[C@H](Oc2ncnc3c2nc(Oc2ccc(OC)c(F)c2)n3C)C1 | 0.12 |
| CCn1c(-c2cnc(C)nc2)nc2c(O[C@H]3CCN(C(=O)CC(C)(C)N)C3)ncnc21 | 0.0093 |
| CCC(=O)N1CC[C@H](Oc2ncnc3c2nc(-c2ccc4cn[nH]c4c2)n3C)C1 | 0.0072 |
| CCn1ncc(-c2nc3c(O[C@H]4CCN(C(=O)c5cocn5)C4)ncnc3n2C)c1C | 0.019 |
| CCn1ncc(-c2nc3c(O[C@H]4CCN(C(=O)c5nnc6n5CCCC6)C4)ncnc3n2C)c1C | 0.24 |
| CCn1ncc(-c2nc3c(O[C@H]4CCN(S(=O)(=O)C(F)(F)F)C4)ncnc3n2C)c1C | 1 |
| CCn1c(-c2cnc(OC)c(F)c2)nc2c(O[C@H]3CCN(C(=O)c4ccn(C)n4)C3)ncnc21 | < 0.001 |
| CCOC(=O)N1CC[C@H](Oc2ncnc3c2nc(-c2cnn(CC)c2C)n3C)C1 | 0.033 |
| CCn1ncc(-c2nc3c(O[C@H]4CCN(c5cc(-n6cc(C)cn6)ncn5)C4)ncnc3n2C)c1C | 0.16 |
| CCn1c(-c2ccc(OC)nc2)nc2c(O[C@H]3CCN(C(=O)C4CC(F)(F)C4)C3)ncnc21 | < 0.001 |
| CCn1ncc(-c2nc3c(O[C@H]4CCN(C(=O)C5CC5)C4)ncnc3n2C)c1C | 0.0063 |
| CCn1ncc(-c2nc3c(S[C@H]4CCN(C(=O)C5CCOCC5)C4)ncnc3n2C)c1C | 0.018 |
| Cc1nn(C)cc1-c1nc2c(O[C@H]3CCN(C(=O)OC(C)(C)C)C3)ncnc2n1C | 1.2 |
| CCn1ncc(-c2nc3c(O[C@H]4CCN(C(=O)c5cnn6cccnc56)C4)ncnc3n2C)c1C | 0.011 |
| CCCN1CC[C@H](Oc2ncnc3c2nc(-c2cnn(CC)c2C)n3C)C1 | 0.38 |
| CCn1c(-c2cnc(C)nc2)nc2c(O[C@@H]3CCN(C(=O)N4CC(F)(F)C4)C3)ncnc21 | 0.0059 |
| CCn1c(-c2cnn(-c3ccccc3)c2C)nc2c(O[C@H]3CCN(C(=O)C4CC4)C3)ncnc21 | < 0.001 |
| CCn1ncc(-c2nc3c(O[C@H]4CCN(c5ccccn5)C4)ncnc3n2C)c1C | 0.68 |
| CCC(=O)N1CC[C@H](Oc2ncnc3c2nc(-c2cc(F)cc(NS(C)(=O)=O)c2)n3C)C1 | 0.01 |

| SMILES | IC50 [µM] |
| --- | --- |
| CCn1c(-c2cnc(C)nc2)nc2c(O[C@H]3CCN(c4cc(C)ccn4)C3)ncnc21 | 0.0041 |
| CCn1c(-c2ccc(C(F)(F)F)cc2)nc2c(O[C@H]3CCN(C(=O)C4CC4)C3)ncnc21 | 0.0034 |
| CCn1ncc(-c2nc3c(O[C@H]4CCN(C(=O)C5CCOC(C)(C)C5)C4)ncnc3n2C)c1C (some centres undefined) | 0.0012 |
| CCn1c(-c2cnc(C)nc2C)nc2c(O[C@H]3CCN(C(=O)C4CC4)C3)ncnc21 | 0.044 |
| CCn1ncc(-c2nc3c(O[C@H]4CCN(C(=O)c5cncn5C)C4)ncnc3n2C)c1C | 0.0054 |
| CCn1ncc(-c2nc3c(O[C@@H]4CC[C@H](n5c(=O)[nH]c6ncccc65)C4)ncnc3n2C)c1C | 0.12 |
| CCn1ncc(-c2nc3c(O[C@H]4CCN(C(=O)c5cc(C(C)(C)C)nn5C)C4)ncnc3n2C)c1C | 0.15 |
| CCC(=O)N1CC[C@H](Oc2ncnc3c2nc(-c2ccc(Cl)nc2)n3C)C1 | 0.016 |
| CCn1ncc(-c2nc3c(OC4CCN(C(=O)c5ccccc5)CC4)ncnc3n2C)c1C | 0.96 |
| CCn1ncc(-c2nc3c(O[C@H]4CCN(C(=O)c5cc(C)[nH]n5)C4)ncnc3n2C)c1C | 0.028 |
| CCn1c(-c2cnc(C)nc2)nc2c(O[C@H]3CCN(C(=O)C4CC4)[C@@H]3C)ncnc21 | 0.0028 |
| CCNC(=O)N1CC[C@H](Oc2ncnc3c2nc(-c2cnn(CC)c2C)n3C)C1 | 0.01 |
| CCC(=O)N1CC[C@H](Oc2ncnc3c2nc(-c2ccc4[nH]ncc4c2)n3C)C1 | 0.044 |
| CCn1ncc(-c2nc3c(S[C@H]4CCN(c5ncnc6sccc56)C4)ncnc3n2C)c1C | 0.0055 |
| CCn1c(-c2cnc(C)nc2)nc2c(O[C@H]3CCN(C(=O)OCCCN(C)C)C3)ncnc21 | 0.037 |
| CCn1c(N2CCC(C)CC2)nc2c(O[C@H]3CCN(C(=O)OC(C)(C)C)C3)ncnc21 | 0.38 |
| CCn1ncc(-c2nc3c(O[C@H]4CCN(C(=O)C(C)C)C4)ncnc3n2C)c1C | 0.004 |
| CCn1c(-c2cnc(C)nc2)nc2c(O[C@H]3CCN(c4ccccn4)C3)ncnc21 | 0.0017 |
| CCC(=O)N1CC[C@H](Oc2ncnc3c2nc(-c2ccc(OC)c(F)c2)n3C)C1 | 0.0064 |
| CCn1ncc(-c2nc3c(O[C@H]4CCN(C(=O)c5ccn[nH]5)C4)ncnc3n2C)c1C | 0.003 |
| CCn1ncc(-c2nc3c(O[C@H]4CCN(c5nccn6cnnc56)C4)ncnc3n2C)c1C | 0.03 |
| CCc1nc(C)c(C(=O)N2CC[C@H](Oc3ncnc4c3nc(-c3cnn(CC)c3C)n4C)C2)o1 | 0.012 |

| SMILES | IC50 [µM] |
| --- | --- |
| CCn1ncc(-c2nc3c(O[C@H]4CCN(C(=O)c5ccc(C)nc5)C4)ncnc3n2C)c1C | 0.07 |
| CCn1c(-c2cnc(C)nc2)nc2c(O[C@H]3CCN(c4cncnc4)C3)ncnc21 | 0.047 |
| CCC(=O)N1CC[C@H](Oc2ncnc3c2nc(-c2cnc4[nH]ccc4c2)n3C)C1 | 0.019 |
| CCn1ncc(-c2nc3c(O[C@H]4CCN(c5cc(C(F)(F)F)ccn5)C4)ncnc3n2C)c1C | 0.037 |
| CCn1c(-c2cnc(C)nc2)nc2c(O[C@H]3CCN(C(=O)N4CC(O)C4)C3)ncnc21 | 0.0043 |
| CCn1c(-c2ccc(C(F)(F)F)nc2)nc2c(O[C@H]3CCN(C(=O)C4CC4)C3)ncnc21 | 0.003 |
| CCn1ncc(-c2nc3c(O[C@H]4CCN(c5ncccn5)C4)ncnc3n2C)c1C | 0.021 |
| CCn1c(-c2cnc(C)nc2)nc2c(O[C@@H]3CN(C(=O)OC(C)(C)C)C[C@H]3O)ncnc21.CCn1c(-c2cnc(C)nc2)nc2c(O[C@H]3CN(C(=O)OC(C)(C)C)C[C@@H]3O)ncnc21 | 0.0037 |
| CCC(=O)N1CC[C@H](S(=O)(=O)c2ncnc3c2nc(-c2cnn(CC)c2C)n3C)C1 | 0.21 |
| CCn1c(-c2cnc(C)nc2)nc2c(O[C@H]3CCN(C(=O)N4CCC(F)(F)C4)C3)ncnc21 | 0.014 |
| CCC(=O)N1CC[C@H](Oc2ncnc3c2nc(-c2cnn(CC)c2C)n3CC(F)F)C1 | 0.0031 |
| CCn1c(-c2cnc(OC)c(C)c2)nc2c(O[C@H]3CCN(C(=O)OC(C)(C)C)C3)ncnc21 | 0.0007 |
| CCn1ncc(-c2nc3c(O[C@H]4CCN(c5nccc(-c6ccco6)n5)C4)ncnc3n2C)c1C | 0.128 |
| CCC(=O)N1CC[C@H](Oc2ncnc3c2nc(-c2ccc(C)nc2)n3C)C1 | 0.066 |
| CCn1ncc(-c2nc3c(S(=O)(=O)[C@H]4CCN(C(=O)C5CCOCC5)C4)ncnc3n2C)c1C | 0.96 |
| Cn1c(-c2ccc(O)cc2)nc2c(O[C@H]3CCN(C(=O)OC(C)(C)C)C3)ncnc21 | 0.098 |
| CCn1ncc(-c2nc3c(O[C@H]4CCN(C(=O)c5ccnn5C(C)C)C4)ncnc3n2C)c1C | 0.023 |
| CCn1ncc(-c2nc3c(O[C@H]4CCN(C(=O)c5ncoc5C)C4)ncnc3n2C)c1C | 0.0072 |
| CCn1ncc(-c2nc3c(O[C@H]4CCN(C(=O)c5ccncc5)C4)ncnc3n2C)c1C | 0.013 |
| CCn1ncc(-c2nc3c(OC4CC(C)N(C(=O)OC(C)(C)C)C4)ncnc3n2C)c1C (centres undefined) | 1.3 |
